Results: patent publication US20100003217A1, “Compounds and Pharmaceutical Compositions for the Treatment of Viral Infections” (priority 2008, published 2010)
“And” between values parts separate entries of the source, which are not always exact repeats. Equal values may be shown once.

Experiments:
[1] = tested on: monkey primary hepatocytes; assay: Metabolic disposition of [^14C]-Compound 1 and [^14C]-2′-C-methyl guanosine in monkey primary hepatocytes (incubation medium, cellular extracts, nucleotide levels); assay type: in vitro ADME, Cynomolgus monkey
Method: (§1) Primary hepatocytes: Freshly isolated cells from animal and human liver were obtained in suspension on ice. Cells were pelleted by centrifugation at 70-75×g (rat) or 95-90×g (monkey and human) and resuspended at 0.8 million cells per mL of platting medium (William's E supplemented with 5% FBS, 0.5% penicillin-streptomycin, 1% L-glutamine, 4 μg/mL insulin and 1 μM dexamethasone). Multi-well collagen I-coated plates (rat tail collagen type I; 12- or 6-well) were then seeded by addition of 1 mL (12-well; 0.8 million cells/well) or 2 mL (6-well; 1.6 million cells/well) of cell suspension. The plates were gently shaken to evenly distribute the cells and placed in an incubator at 37° C. for approximately 4 to 6 hours to allow cells to attach. Once cells were attached, the platting medium was removed and replaced with hepatocyte culture medium (William's E supplemented with penicillin-streptomycin, 1% L-glutamine, 1% insulin-transferrin-selenium and 0.1 μM dexamethasone). Cells were left overnight in an incubator at 37° C. to acclimatize to culture and the medium.
(§2) Hepatocyte incubations with radiolabeled Compound 1 and 2′-C-methyl guanosine, both labeled in the C-8 position of the guanine moiety, were conducted at a final volume of 2.0 mL hepatocyte culture medium/well ([…]). Culture medium from overnight incubation of cells was removed and replaced with fresh medium, pre-warmed to 37° C., containing 1 or 10 μM [^14C]-Compound 1 ([…]) or [^14C]-2′-C-methyl guanosine (127 DPM/μmol) from a stock solution in DMSO (final DMSO concentration was 0.1%) or 50% ethanol (final ethanol concentration was 0.2%). After 1, 4, 8 and 24 hours, 0.5-1.0 mL of incubation medium was removed and stored at −20° C. until analysis (described below). The remaining medium was discarded and cell monolayers were carefully washed two times with ice-cold PBS. Following the last wash, all PBS was carefully removed and 1.0 mL of extraction solution (ice-cold 70% methanol) added. Cells were scrapped off and suspended in the extraction solution, transferred to 2 mL polypropylene microfuge tubes and intracellular contents extracted overnight at −20° C.
(§3) Preliminary identification of putative metabolites was conducted by comparing the retention time of observed metabolites in incubation medium and cellular extracts with retention times obtained with chemically synthesized standards using the chromatography conditions described below. Further identification of 2′-C-methyl guanosine nucleotides (mono-, di- and triphosphate) was carried out by incubating cellular extract samples with alkaline phosphatase (10 units for 60 min at 37° C.) and comparing the HPLC retention times of the resulting nucleosides with that of authentic 2′-C-methyl guanosine.
(§4) Cellular extracts were prepared by centrifugation at 16,000 RCF using an Eppendorf microcentrifuge (Eppendorf, Model 5415D) for 10 min to remove cellular debris. An aliquot of 5-10 μL of the supernatant was added to 5 mL of EcoLite™ (MP, Irvine, Calif.) liquid scintillation cocktail and radioactivity measured by liquid scintillation counting (LSC) using a Beckman Coulter LS6500 multipurpose liquid scintillation counter (Beckman Instruments, Fullerton, Calif.). The remaining sample was then dried using a Labconco refrigerated centrivap concentrator (Labconco, Kansas City, Mo.). Dry extracts were reconstituted in 120 μL of HPLC-grade water and centrifuged at 16,000 RCF using an Eppendorf microcentrifuge for 10 min. Prior to HPLC analysis (described below), radioactivity of the concentrated extracts was measured by LSC using 5 μL aliquots. Extraction recovery was then determined by comparing total radioactivity in extracts before and after drying. The remaining extract was then analyzed by HPLC with online radioactivity detection using a Flow Scintillation Analyzer Radiomatic™ 515TR. Radioactivity in the separated components was quantified by integrating the peaks using Flo-One™ Software (Perkin Elmer Life Sciences). […]

[2] = tested on: human primary hepatocytes; assay: Metabolic disposition of [^14C]-Compound 1 and [^14C]-2′-C-methyl guanosine in human primary hepatocytes (incubation medium, cellular extracts, nucleotide levels); assay type: in vitro ADME; conditions: for metabolites observed in cellular extracts (% of total radioactivity): human hepatocytes (Hu759, Hu775)
Method: as §1, §2, §3, §4

[3] = monkey hepatocytes (Cy234), 10 μM [^14C]-Compound 1, 4 h
[4] = monkey hepatocytes Cy230, 10 μM [^14C]-2′-C-methyl guanosine, 1 h
[5] = monkey hepatocytes Cy230, 10 μM [^14C]-2′-C-methyl guanosine, 8 h
[6] = monkey hepatocytes Cy230, 10 μM [^14C]-2′-C-methyl guanosine, 24 h
[7] = monkey hepatocytes Cy234, 10 μM [^14C]-2′-C-methyl guanosine, 1 h
[8] = monkey hepatocytes Cy234, 10 μM [^14C]-2′-C-methyl guanosine, 4 h
[9] = monkey hepatocytes Cy234, 10 μM [^14C]-2′-C-methyl guanosine, 8 h
[10] = monkey hepatocytes Cy234, 10 μM [^14C]-2′-C-methyl guanosine, 24 h
[11] = human hepatocytes (Hu775), 1 μM [^14C]-Compound 1, 0 h

For `C[C@@]1(O)[C@H](O)[C@@H](COP(=O)(O)O)O[C@H]1n1cnc2c(=O)[nH]c(N)nc21` [Compound 5, [(2R)-2-methyl-β-D-ribofuranosyl]guanine 5′-monophosphate], which “metabolites observed in cellular extracts (% of total radioactivity)” value ([1]; monkey hepatocytes (Cy230, Cy234), 10 μM [^14C]-Compound 1, 8 h) is on record?
The value was 3.84% and 5.38%.

And the “metabolites observed in cellular extracts (% of total radioactivity)” value ([1]; monkey hepatocytes (Cy230, Cy234), 10 μM [^14C]-Compound 1, 24 h)?
The value was 6.96% and 3.34%.

What about the “2′-C-methyl guanosine nucleotide levels in cellular extracts” value (“2′-C-methyl guanosine nucleotide levels” below) [1, 3] of the same molecule?
The value was 14.3 pmol/million cells.

What about the “metabolites observed in cellular extracts (% of total radioactivity)” value [1, 3] of the same molecule?
Its value is 5.47%.

And the “metabolites observed in medium (% of total radioactivity)” value ([1]; monkey hepatocytes (lot Cy234), 10 μM [^14C]-Compound 1, 4 h)?
Its value is 19.0%.

And the “metabolites observed in medium (% of total radioactivity)” value ([1]; monkey hepatocytes (lots Cy230, Cy234), 10 μM [^14C]-Compound 1, 0 h)?
The value was “BLD”.

What about the “metabolites observed in medium (% of total radioactivity)” value ([1]; monkey hepatocytes (lots Cy230, Cy234), 10 μM [^14C]-Compound 1, 24 h) of the same molecule?
Its value is 8% and 8.4% and 7.5%.

What about the “2′-C-methyl guanosine nucleotide levels” value ([1]; monkey hepatocytes Cy230, 10 μM [^14C]-2′-C-methyl guanosine, 0 h) of the same molecule?
Its value is 0 pmol/million cells.

What about the “2′-C-methyl guanosine nucleotide levels” value [1, 4] of the same molecule?
The value was “BLD^b (BLD = below limit of detection (0.02 pmol/million cells))”.

And the “Major metabolites observed in cellular extracts (% of total radioactivity)” value [1, 4]?
Its value is “BLD^b (BLD = below limit of detection (30 DPM))”.

What about the “2′-C-methyl guanosine nucleotide levels” value [1, 5] of the same molecule?
Its value is “BLD (BLD = below limit of detection (0.02 pmol/million cells))”.

And the “Major metabolites observed in cellular extracts (% of total radioactivity)” value [1, 5]?
Its value is “BLD (BLD = below limit of detection (30 DPM))”.

What about the “2′-C-methyl guanosine nucleotide levels” value [1, 6] of the same molecule?
Its value is “BLD (BLD = below limit of detection (0.02 pmol/million cells))”.

What about the “Major metabolites observed in cellular extracts (% of total radioactivity)” value [1, 6] of the same molecule?
The value was “BLD (BLD = below limit of detection (30 DPM))”.

What about the “2′-C-methyl guanosine nucleotide levels” value ([1]; monkey hepatocytes Cy230, 10 μM [^14C]-Compound 1, 0 h) of the same molecule?
Its value is 0 pmol/million cells.

What about the “2′-C-methyl guanosine nucleotide levels” value ([1]; monkey hepatocytes Cy230, 10 μM [^14C]-Compound 1, 1 h) of the same molecule?
Its value is 23.9 pmol/million cells.

And the “2′-C-methyl guanosine nucleotide levels” value ([1]; monkey hepatocytes Cy230, 10 μM [^14C]-Compound 1, 8 h)?
The value was 42.5 pmol/million cells.

What about the “2′-C-methyl guanosine nucleotide levels” value ([1]; monkey hepatocytes Cy230, 10 μM [^14C]-Compound 1, 24 h) of the same molecule?
Its value is 33.2 pmol/million cells.

And the “2′-C-methyl guanosine nucleotide levels” value ([1]; monkey hepatocytes Cy234, 10 μM [^14C]-2′-C-methyl guanosine, 0 h)?
Its value is 0 pmol/million cells.

And the “2′-C-methyl guanosine nucleotide levels” value [1, 7]?
Its value is 0.95 pmol/million cells.

And the “Major metabolites observed in cellular extracts (% of total radioactivity)” value [1, 7]?
Its value is 2.19 % of total radioactivity.

And the “2′-C-methyl guanosine nucleotide levels” value [1, 8]?
The value was “BLD (BLD = below limit of detection (0.02 pmol/million cells))”.

And the “Major metabolites observed in cellular extracts (% of total radioactivity)” value [1, 8]?
Its value is “BLD (BLD = below limit of detection (30 DPM))”.

What about the “2′-C-methyl guanosine nucleotide levels” value [1, 9] of the same molecule?
The value was 3.00 pmol/million cells.

And the “Major metabolites observed in cellular extracts (% of total radioactivity)” value [1, 9]?
The value was 3.32 % of total radioactivity.

And the “2′-C-methyl guanosine nucleotide levels” value [1, 10]?
The value was 5.50 pmol/million cells.

And the “Major metabolites observed in cellular extracts (% of total radioactivity)” value [1, 10]?
The value was 5.03 % of total radioactivity.

What about the “2′-C-methyl guanosine nucleotide levels” value ([1]; monkey hepatocytes Cy234, 10 μM [^14C]-Compound 1, 0 h) of the same molecule?
Its value is 0 pmol/million cells.

And the “2′-C-methyl guanosine nucleotide levels” value ([1]; monkey hepatocytes Cy234, 10 μM [^14C]-Compound 1, 1 h)?
Its value is 11.7 pmol/million cells.

And the “2′-C-methyl guanosine nucleotide levels” value ([1]; monkey hepatocytes Cy234, 10 μM [^14C]-Compound 1, 8 h)?
The value was 33.0 pmol/million cells.

And the “2′-C-methyl guanosine nucleotide levels” value ([1]; monkey hepatocytes Cy234, 10 μM [^14C]-Compound 1, 24 h)?
The value was 23.2 pmol/million cells.

What about the “metabolites observed in cellular extracts (% of total radioactivity)” value ([2]; 10 μM [^14C]-2′-C-methyl guanosine, 8 h) of the same molecule?
The value was 1.89% and 1.11%.

And the “metabolites observed in cellular extracts (% of total radioactivity)” value ([2]; 10 μM [^14C]-2′-C-methyl guanosine, 24 h)?
Its value is 3.82% and 3.41%.

And the “metabolites observed in cellular extracts (% of total radioactivity)” value ([2]; 10 μM [^14C]-Compound 1, 1 h)?
The value was 6.44% and 8.77%.

And the “metabolites observed in cellular extracts (% of total radioactivity)” value ([2]; 10 μM [^14C]-Compound 1, 4 h)?
The value was 5.70% and 5.54%.

And the “metabolites observed in cellular extracts (% of total radioactivity)” value ([2]; 10 μM [^14C]-Compound 1, 8 h)?
Its value is 7.99% and 4.44%.

And the “metabolites observed in cellular extracts (% of total radioactivity)” value ([2]; 10 μM [^14C]-Compound 1, 24 h)?
The value was 5.38% and 12.8%.

What about the “2′-C-methyl guanosine nucleotide levels” value [2, 11] of the same molecule?
The value was “BLD^a (BLD = below limit of detection (0.02 pmol/million cells))”.

What about the “metabolites observed in medium (% of total radioactivity)” value [2, 11] of the same molecule?
The value was “BLD”.

What about the “2′-C-methyl guanosine nucleotide levels” value ([2]; human hepatocytes (Hu775), 1 μM [^14C]-Compound 1, 1 h) of the same molecule?
The value was 2.40 pmol/million cells.
